Results taken from patent publication US12649751B2 (Arcus Biosciences, Inc., priority 2022, dated 2026).
Like-named read-outs stand apart in the source and are kept apart here.

Legend:
[1] = target: HPK1 (Homo sapiens, UniProt Q92918); experiment: HPK1 Biochemical Assay (ADP-Glo luminescence; low ATP 10 μM or high ATP 200 μM)
[2] = test system: p-SLP-76 (Ser376) in Jurkat cells; experiment: pSLP76 Cellular Assay (AlphaLISA SureFire Ultra p-SLP-76 (Ser376), anti-CD3 activated Jurkat cells); type: cell-based; details: Homo sapiens; Jurkat cells, anti-CD3 stimulation, pSLP76; read-out: Cellular Potency
Outline: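 Jurkat cells, serum-starved overnight in Opti-MEM then in HBSS, preincubated 1 h at 37 °C with 22-point 2-fold compound dilutions, then stimulated with anti-CD3 (0.025 mg/ml added solution) for 45 min. Lysate p-SLP-76 (Ser376) measured by AlphaLISA at 570 nm; IC50 from 4-parameter logistic fit.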

[3] = 2 nM HPK1, 10 μM ATP, read-out: Biochemical Potency (low ATP)

HPK1, sequence (Q92918 whole entry, species assumed): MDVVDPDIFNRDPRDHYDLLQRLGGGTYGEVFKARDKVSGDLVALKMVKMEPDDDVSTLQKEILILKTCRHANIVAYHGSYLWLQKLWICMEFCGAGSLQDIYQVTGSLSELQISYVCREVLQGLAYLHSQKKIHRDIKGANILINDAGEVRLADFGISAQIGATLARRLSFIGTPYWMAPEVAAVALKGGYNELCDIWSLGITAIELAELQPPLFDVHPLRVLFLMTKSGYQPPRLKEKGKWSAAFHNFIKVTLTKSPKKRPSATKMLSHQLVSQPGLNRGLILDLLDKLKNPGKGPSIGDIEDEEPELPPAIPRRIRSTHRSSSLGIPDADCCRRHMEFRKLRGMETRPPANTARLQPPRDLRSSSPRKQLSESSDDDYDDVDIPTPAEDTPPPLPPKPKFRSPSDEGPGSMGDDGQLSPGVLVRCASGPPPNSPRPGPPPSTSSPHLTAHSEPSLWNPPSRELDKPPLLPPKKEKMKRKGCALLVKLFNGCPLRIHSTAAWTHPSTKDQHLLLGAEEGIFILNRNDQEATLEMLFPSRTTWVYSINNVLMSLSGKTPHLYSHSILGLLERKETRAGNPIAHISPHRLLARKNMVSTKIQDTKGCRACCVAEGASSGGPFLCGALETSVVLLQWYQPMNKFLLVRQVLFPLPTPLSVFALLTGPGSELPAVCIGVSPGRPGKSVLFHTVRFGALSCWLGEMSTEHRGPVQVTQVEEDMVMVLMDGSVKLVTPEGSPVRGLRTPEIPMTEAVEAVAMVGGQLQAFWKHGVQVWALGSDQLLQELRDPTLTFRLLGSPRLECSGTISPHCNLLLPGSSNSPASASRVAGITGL

| IC50 [1, 3] [nM] | IC50 [2] [nM] | IC50 ([1]; 5 nM HPK1, 200 μM ATP, read-out: Biochemical Potency (high ATP)) [nM] | SMILES |
| --- | --- | --- | --- |
| < 100 | 100 to 1000 |  | CS(=O)(=O)c1cccc(-c2nc3cc(Nc4cccc(N5C[C@@H]6C[C@H]5CN6)n4)ncc3s2)c1 [Example 141, 6-[(1S,4S)-2,5-Diazabicyclo[2.2.1]heptan-2-yl]-N-[2-(3-methanesulfonylphenyl)-[1,3]thiazolo[5,4-c]pyridin-6-yl]pyridin-2-amine] |
| < 100 | 1000 to 5000 |  | c1cc(-c2nnco2)cc(-c2nc3cc(Nc4cccc(N5C[C@@H]6C[C@H]5CN6)n4)ncc3s2)c1 [Example 142, 6-[(1S,4S)-2,5-Diazabicyclo[2.2.1]heptan-2-yl]-N-{2-[3-(1,3,4-oxadiazol-2-yl)phenyl]-[1,3]thiazolo[5,4-c]pyridin-6-yl}pyridin-2-amine] |
| < 100 | 100 to 1000 |  | Cc1cccnc1-c1nc2cc(Nc3cncc(N4C[C@@H]5C[C@H]4CN5)n3)ncc2s1 [Example 144, 6-[(1S,4S)-2,5-Diazabicyclo[2.2.1]heptan-2-yl]-N-[2-(3-methylpyridin-2-yl)-[1,3]thiazolo[5,4-c]pyridin-6-yl]pyrazin-2-amine] |
| < 100 | 100 to 1000 |  | Cc1cccnc1-c1nc2cc(Nc3cncc(N4C[C@@H]5C[C@H]4CN5C)n3)ncc2s1 [Example 145, 6-[(1S,4S)-5-Methyl-2,5-diazabicyclo[2.2.1]heptan-2-yl]-N-[2-(3-methylpyridin-2-yl)-[1,3]thiazolo[5,4-c]pyridin-6-yl]pyrazin-2-amine] |
| < 100 | < 100 |  | Cc1cccnc1-c1nc2cc(Nc3cnc(C)c(N4C[C@@H]5C[C@H]4CN5)n3)ncc2s1 [Example 148, 6-[(1S,4S)-2,5-Diazabicyclo[2.2.1]heptan-2-yl]-5-methyl-N-[2-(3-methylpyridin-2-yl)-[1,3]thiazolo[5,4-c]pyridin-6-yl]pyrazin-2-amine] |
| < 100 | 100 to 1000 |  | Cc1cccnc1-c1nc2cc(Nc3ccnc(N4C[C@@H](N)C[C@H]4CO)n3)ncc2s1 [Example 155, [(2S,4S)-4-Mmino-1-(4-{[2-(3-methylpyridin-2-yl)-[1,3]thiazolo[5,4-c]pyridin-6-yl]amino}pyrimidin-2-yl)pyrrolidin-2-yl]methanol] |
| < 100 | 100 to 1000 |  | CN1C[C@@H]2C[C@H]1CN2c1nccc(Nc2cc3nc(-c4ccncc4)sc3cn2)n1 [Example 159, 2-[(1S,4S)-5-Methyl-2,5-diazabicyclo[2.2.1]heptan-2-yl]-N-[2-(pyridin-4-yl)-[1,3]thiazolo[5,4-c]pyridin-6-yl]pyrimidin-4-amine] |
| < 100 | < 100 |  | Cc1cc(Nc2cc3nc(-c4ncccc4C)sc3cn2)nc(N2C[C@@H]3C[C@H]2CN3C)n1 [Example 160, 6-Methyl-2-[(1S,4S)-5-methyl-2,5-diazabicyclo[2.2.1]heptan-2-yl]-N-[2-(3-methylpyridin-2-yl)-[1,3]thiazolo[5,4-c]pyridin-6-yl]pyrimidin-4-amine] |
| < 100 | 100 to 1000 |  | Cc1cc(Nc2cc3nc(-c4ncccc4C)sc3cn2)nc(O[C@H]2CCNC2)c1 [Example 164, 4-Methyl-N-[2-(3-methylpyridin-2-yl)-[1,3]thiazolo[5,4-c]pyridin-6-yl]-6-[(3S)-pyrrolidin-3-yloxy]pyridin-2-amine] |
| < 100 | < 100 |  | Cc1cc(Nc2cc3nc(-c4cccnc4)sc3cn2)nc(O[C@H]2CCNC2)c1 [Example 167, 4-Methyl-N-[2-(pyridin-3-yl)-[1,3]thiazolo[5,4-c]pyridin-6-yl]-6-[(3S)-pyrrolidin-3-yloxy]pyridin-2-amine] |
| < 100 | < 100 |  | Cc1cc(-c2nc3cc(Nc4ccc(C)c(O[C@H]5CCNC5)n4)ncc3s2)ccn1 [Example 172, 5-Methyl-N-[2-(2-methylpyridin-4-yl)-[1,3]thiazolo[5,4-c]pyridin-6-yl]-6-[(3S)-pyrrolidin-3-yloxy]pyridin-2-amine] |
| < 100 | 100 to 1000 |  | Cc1cc(Nc2cc3nc(-c4c(F)cccc4F)sc3cn2)nc(O[C@H]2CCNC2)c1 [Example 175, N-[2-(2,6-Difluorophenyl)-[1,3]thiazolo[5,4-c]pyridin-6-yl]-4-methyl-6-[(3S)-pyrrolidin-3-yloxy]pyridin-2-amine] |
| < 100 | 100 to 1000 |  | Cc1cc(Nc2cc3nc(-c4c(C)cccc4F)sc3cn2)nc(O[C@H]2CCNC2)c1 [Example 178, N-[2-(2-Fluoro-6-methylphenyl)-[1,3]thiazolo[5,4-c]pyridin-6-yl]-4-methyl-6-[(3S)-pyrrolidin-3-yloxy]pyridin-2-amine] |
| < 100 | 100 to 1000 |  | Cc1ccc(Nc2cc3nc(-c4ccnn4C)sc3cn2)nc1O[C@H]1CCNC1 [Example 182, 5-Methyl-N-[2-(1-methyl-1H-pyrazol-5-yl)-[1,3]thiazolo[5,4-c]pyridin-6-yl]-6-[(3S)-pyrrolidin-3-yloxy]pyridin-2-amine] |
| < 100 | < 100 |  | Cc1ccnn1-c1nc2cc(Nc3ccc(N4CCOCC4)c(CN4CCCC4)n3)ncc2s1 [Example 194, N-[2-(5-Methyl-1H-pyrazol-1-yl)-[1,3]thiazolo[5,4-c]pyridin-6-yl]-5-(morpholin-4-yl)-6-[(pyrrolidin-1-yl)methyl]pyridin-2-amine] |
| < 100 | 100 to 1000 |  | Cc1ccc(Nc2cc3nc(-n4nccc4C)sc3cn2)nc1CN1CCCC1 [Example 197, 5-Methyl-N-[2-(5-methyl-1H-pyrazol-1-yl)-[1,3]thiazolo[5,4-c]pyridin-6-yl]-6-[(pyrrolidin-1-yl)methyl]pyridin-2-amine] |
| < 100 | > 5000 |  | Cc1ccc(Nc2cc3nc(-n4nccc4C)sc3cn2)nc1CN[C@H]1CCOC1 [Example 198, 5-Methyl-N-[2-(5-methyl-1H-pyrazol-1-yl)-[1,3]thiazolo[5,4-c]pyridin-6-yl]-6-({[(3S)-oxolan-3-yl]amino}methyl)pyridin-2-amine] |
| < 100 | 1000 to 5000 |  | Cc1ccc(Nc2cc3nc(-n4cccn4)sc3cn2)nc1CN1CCCC1 [Example 200, 5-Methyl-N-[2-(1H-pyrazol-1-yl)-[1,3]thiazolo[5,4-c]pyridin-6-yl]-6-[(pyrrolidin-1-yl)methyl]pyridin-2-amine] |
| < 100 | 100 to 1000 | < 100 | Cc1ccnn1-c1nc2cc(Nc3cccc(N4C[C@@H]5C[C@H]4CN5C)n3)ncc2s1 [Example 205, N-[2-(5-Methyl-1H-pyrazol-1-yl)-[1,3]thiazolo[5,4-c]pyridin-6-yl]-6-[(1S,4S)-5-methyl-2,5-diazabicyclo[2.2.1]heptan-2-yl]pyridin-2-amine] |
| < 100 | 100 to 1000 |  | CN1C[C@@H]2C[C@H]1CN2c1cccc(Nc2cc3nc(-n4cccn4)sc3cn2)n1 [Example 206, 6-[(1S,4S)-5-Methyl-2,5-diazabicyclo[2.2.1]heptan-2-yl]-N-[2-(1H-pyrazol-1-yl)-[1,3]thiazolo[5,4-c]pyridin-6-yl]pyridin-2-amine] |
| < 100 | 1000 to 5000 |  | Cc1ccnn1-c1nc2cc(Nc3ccc(C4CCOCC4)c(CN[C@H]4CCOC4)n3)ncc2s1 [Example 209, N-[2-(5-Methyl-1H-pyrazol-1-yl)-[1,3]thiazolo[5,4-c]pyridin-6-yl]-5-(oxan-4-yl)-6-({[(3S)-oxolan-3-yl]amino}methyl)pyridin-2-amine] |
| < 100 | 100 to 1000 |  | c1cnn(-c2nc3cc(Nc4ccc(C5CCOCC5)c(CN5CCCC5)n4)ncc3s2)c1 [Example 210, 5-(Oxan-4-yl)-N-[2-(1H-pyrazol-1-yl)-[1,3]thiazolo[5,4-c]pyridin-6-yl]-6-[(pyrrolidin-1-yl)methyl]pyridin-2-amine] |
| < 100 | < 100 |  | Cc1cccnc1-c1nc2cc(Nc3ccc(C4CCOCC4)c(CN4CCCC4)n3)ncc2s1 [Example 212, N-[2-(3-Methylpyridin-2-yl)-[1,3]thiazolo[5,4-c]pyridin-6-yl]-5-(oxan-4-yl)-6-[(pyrrolidin-1-yl)methyl]pyridin-2-amine] |
| < 100 | 100 to 1000 |  | Cc1cccnc1-c1nc2cc(Nc3ccc(C4CCOCC4)c(CN4CC[C@H](F)C4)n3)ncc2s1 [Example 214, 6-{[(3S)-3-Fluoropyrrolidin-1-yl]methyl}-N-[2-(3-methylpyridin-2-yl)-[1,3]thiazolo[5,4-c]pyridin-6-yl]-5-(oxan-4-yl)pyridin-2-amine] |
| < 100 | < 100 |  | c1cc(-c2nc3cc(Nc4ccc(C5CCOCC5)c(CN5CCCC5)n4)ncc3s2)ccn1 [Example 216, 5-(Oxan-4-yl)-N-[2-(pyridin-4-yl)-[1,3]thiazolo[5,4-c]pyridin-6-yl]-6-[(pyrrolidin-1-yl)methyl]pyridin-2-amine] |
| < 100 | < 100 |  | Cn1ccnc1-c1nc2cc(Nc3ccc(C4CCOCC4)c(CN4CCCC4)n3)ncc2s1 [Example 217, N-[2-(1-Methyl-1H-imidazol-2-yl)-[1,3]thiazolo[5,4-c]pyridin-6-yl]-5-(oxan-4-yl)-6-[(pyrrolidin-1-yl)methyl]pyridin-2-amine] |
| < 100 | 100 to 1000 |  | Cc1cc(-c2nc3cc(Nc4ccc(C5CCOCC5)c(CN5CCC(F)(F)C5)n4)ncc3s2)ccn1 [Example 220, 6-[(3,3-Difluoropyrrolidin-1-yl)methyl]-N-[2-(2-methylpyridin-4-yl)-[1,3]thiazolo[5,4-c]pyridin-6-yl]-5-(oxan-4-yl)pyridin-2-amine] |
| < 100 | 100 to 1000 |  | Cc1cc(-c2nc3cc(Nc4ccc(C5CCOCC5)c(CN[C@H]5CCOC5)n4)ncc3s2)ccn1 [Example 221, N-[2-(2-Methylpyridin-4-yl)-[1,3]thiazolo[5,4-c]pyridin-6-yl]-5-(oxan-4-yl)-6-({[(3S)-oxolan-3-yl]amino}methyl)pyridin-2-amine] |
